Several values for one entry are separate records, joined by “and”; a condition that tells them apart may be missing. Equal entries are not always repeated. Entries after “also recorded” stand apart in the source; their conditions may differ. Where two headings read alike, the source gives them in different places.
What was measured:
[1] = biological target: T1, KCa3.1 channels in 3T3 fibroblasts (Mus musculus, UniProt O89109); assay: Whole-cell patch-clamp of KCa3.1 currents in 3T3 fibroblasts; type: cell-based
T1 construct: KCa3.1 channels in 3T3 fibroblasts; endogenous in cells; host or cells: 3T3-L1 mouse embryonic fibroblasts

[2] = biological target: T2, cloned human KCa3.1 channel (Homo sapiens, UniProt O15554); assay: Inside-out patch recordings from hKCa3.1-overexpressing HEK293 cells; type: biochemical; details: inside-out patches
T2 construct: expressed in transfected cells; gift of Khaled Houamed, University of Chicago

[3] = biological target: T3, hKCa2.3 (Homo sapiens, UniProt Q9UGI6); assay: Whole-cell patch-clamp of hKCa2.3 in COS7 cells; type: cell-based
T3 construct: expressed in transfected cells; host or cells: COS7
T3 sequence (Q9UGI6 whole entry): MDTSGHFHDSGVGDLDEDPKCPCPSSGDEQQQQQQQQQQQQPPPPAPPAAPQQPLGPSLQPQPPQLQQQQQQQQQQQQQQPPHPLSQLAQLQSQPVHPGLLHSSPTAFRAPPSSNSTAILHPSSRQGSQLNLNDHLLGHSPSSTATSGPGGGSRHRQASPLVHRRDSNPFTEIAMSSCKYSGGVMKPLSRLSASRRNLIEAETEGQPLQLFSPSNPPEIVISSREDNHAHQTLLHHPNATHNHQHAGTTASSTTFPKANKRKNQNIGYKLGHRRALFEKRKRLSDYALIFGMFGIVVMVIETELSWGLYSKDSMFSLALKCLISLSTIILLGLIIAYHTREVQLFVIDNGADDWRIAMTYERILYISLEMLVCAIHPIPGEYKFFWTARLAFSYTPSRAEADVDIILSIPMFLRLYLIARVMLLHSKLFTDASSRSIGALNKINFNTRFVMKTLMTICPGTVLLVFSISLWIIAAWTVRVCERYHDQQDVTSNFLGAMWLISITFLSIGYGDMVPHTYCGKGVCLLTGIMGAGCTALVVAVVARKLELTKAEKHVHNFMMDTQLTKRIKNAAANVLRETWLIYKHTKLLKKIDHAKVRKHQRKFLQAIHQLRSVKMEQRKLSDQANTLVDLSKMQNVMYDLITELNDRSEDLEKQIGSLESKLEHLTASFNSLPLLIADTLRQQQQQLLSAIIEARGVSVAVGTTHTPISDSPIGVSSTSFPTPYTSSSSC

[4] = biological target: T3, hKCa2.3; assay: Inside-out single-channel experiments on hKCa2.3; type: biochemical
[5] = tested on: T4, KCa1.1; assay: Whole-cell patch-clamp of KCa1.1 in U251 glioblastoma cells; type: cell-based, human
T4 construct: KCa1.1 in human U251 glioblastoma cells; endogenous in cells; host or cells: U251 glioblastoma cells

[6] = biological target: T5, hKv1.2 (Homo sapiens, UniProt P16389); assay: Whole-cell patch-clamp of cloned hKv1.2; type: cell-based
T5 construct: expressed in transfected cells; host or cells: B82 murine fibroblasts (Methods)
T5 sequence (P16389 whole entry): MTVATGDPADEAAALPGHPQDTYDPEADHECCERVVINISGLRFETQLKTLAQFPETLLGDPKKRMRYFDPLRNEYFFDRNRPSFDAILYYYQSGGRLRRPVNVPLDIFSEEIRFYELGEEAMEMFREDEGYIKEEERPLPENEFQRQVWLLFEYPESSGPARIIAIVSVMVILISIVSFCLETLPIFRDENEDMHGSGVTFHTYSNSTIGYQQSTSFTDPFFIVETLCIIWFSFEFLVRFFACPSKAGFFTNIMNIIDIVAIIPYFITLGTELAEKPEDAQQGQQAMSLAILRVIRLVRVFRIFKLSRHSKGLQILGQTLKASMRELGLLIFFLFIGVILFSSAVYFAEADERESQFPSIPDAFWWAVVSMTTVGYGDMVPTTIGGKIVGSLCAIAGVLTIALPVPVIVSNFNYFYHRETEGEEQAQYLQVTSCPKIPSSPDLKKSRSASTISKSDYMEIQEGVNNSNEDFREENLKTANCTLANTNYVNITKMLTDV

[7] = tested on: T6, hKv1.3; assay: Whole-cell patch-clamp of cloned hKv1.3; type: cell-based, human
T6 construct: expressed in transfected cells

[8] = tested on: T7, hERG channels; assay: Whole-cell patch-clamp of hERG tail currents in HEK293 cells; type: cell-based, human; details: 13b 1 µM; caffeic acid, flufenamic acid 10 µM (Table S1)
T7 construct: expressed in transfected cells; gift of Craig January, University of Wisconsin

[9] = tested on: T8, hERG; assay: as above; type: cell-based, human; details: human, HEK293 cells expressing hERG, pH 7.4; hERG; compound 1 µM; read-out: % of control at 1 µM
T8 construct: expressed in transfected cells; gift of Craig January, University of Wisconsin

[10] = tested on: inward-rectifying K+ current (Kir) in U251 glioblastoma cells; assay: Whole-cell patch-clamp of native inward-rectifying K+ current in U251 cells; type: cell-based, human; details: 1 µM, at −100 mV, n = 5
[11] = tested on: 3T3 fibroblasts; assay: Cell proliferation assay (Janus B Green staining); type: cell-based, mouse
Description: Cell proliferation was spectrophotometrically assessed as described previously with some modifications. Briefly, 3T3 fibroblasts (1500 cells/well) were seeded in 96-well plates (TPP. Switzerland), cultured in DMEM containing 10% FCS (Lonza, Switzerland) with 13b or vehicle (DMSO), and formalin-fixed at days 0,1,2 and 3. To exclude the possibility that DMSO as vehicle affected the cell viability per se, final DMSO concentrations were the same for each concentration of 13b and the controls. Fixed cells were stained for 5 minutes with 50 ul/well of 0.3% Janus B Green dye (Acros Organics, Belgium) at room temperature with constant stirring followed by a de-staining step with water. Dye was eluted with 200 ul/well of 0.5 M HCl of hydrochloric acid and top-read measurements of absorbance were performed in a microplate reader (Sinergy HT, Biotek, USA) at 595 nm.

[12] = tested on: mixed KCa3.1 and KCa2.3 currents in PCAEC; assay: Whole-cell patch-clamp of KCa currents in porcine coronary artery endothelial cells; type: cell-based
[13] = tested on: porcine coronary artery rings; assay: Isometric myography: 5-HT-induced contractions; details: for Δg, 1st stimulation / Δg, 2nd stimulation: 1 µM 5-HT
Description: (§1) Myography on porcine coronary artery rings was performed as described in detail previously, [30]. In brief, left anterior descending arteries or posterior descending arteries were cut into rings (3 mm long) and rings were mounted onto a isometric force transducer (Pioden UF1, Graham Bell House, Canterbury, UK). The organ bath contained a 5 ml Krebs buffer maintained at 37°C and gassed with 95% O2/5% CO2. The composition of the Krebs buffer was as follows (in mM): NaCl 120, NaHCO3 24.5, CaCl2 2.4, KCl 4.7, MgSO4 1.2, KH2PO4 1 and glucose 5.6, pH 7.4. Each ring was passively stretched to an initial tension of 1 gr (10 mN). Changes in force were monitored and recorded on a computer using a Mac Lab System/8e program (AD Instruments Inc, Milford, Ma, USA), and digitalized at a sample rate of 0.5 sec.
(§2) To measure specifically endothelium-derived hyperpolarization-mediated vasorelaxation (EDH), the NO-synthase blocker, Nω-nitro-L-arginine (L-NNA, 300 µM), and the cyclooxygenase blocker, indomethacin (10 µM), were added to the buffer. Preparations were washed three times and were allowed to equilibrate for 40 min. Within this period, the incubation medium was renewed every 20 min. […] Ten min later, bradykinin (1 µM) was added for another 10 min, followed by washout (over at least 10 min). This protocol was repeated (2nd stimulation). Thereafter, we performed a 3rd round of pre-contraction and vasorelaxation, but using the vasospasmic thromboxane analogue U46619 (0.2 µM) as vasocontracting agent. At the end of the experiments, rings were allowed to contract maximally in a KCl (60 mM) buffer for 10 min followed by addition of the compounds. Finally, sodium nitroprusside (10 µM) was added to achieve maximal endothelium-independent vasorelaxation.
(§3) DMSO as the vehicle had no vasoactive effect per se on the tissue. Other compounds were dissolved in Milli-Q water.
(§4) For data analysis, we determined absolute increases in force to 5-HT, U46619, or 60 mM KCl. Bradykinin-induced relaxations were determined as % change of pre-contraction to either vasocontracting compound and relative to the fully relaxed state (in the absence of the vasocontracting agent).

[14] = tested on: porcine coronary artery rings; assay: Isometric myography: U46619-induced contractions; details: for Δg: 0.2 µM U46619
Description: as §1, §2, §3, §4

[15] = tested on: porcine coronary artery rings; assay: Isometric myography: bradykinin-induced (EDH) relaxation; details: for % relaxation, 5-HT-precontraction / % relaxation, U46619-precontraction: 1 µM bradykinin
Description: as §1, §2, §3, §4

[16] = tested on: porcine coronary artery rings; assay: Isometric myography: contractions to 60 mM K+
Description: as §1
as §2, with “vasorelaxation. […]” for “vasorelaxation.”
as §4

[17] = tested on: porcine coronary artery rings; assay: Isometric myography: endothelium-independent relaxation to sodium nitroprusside; details: pre-contracted by 60 mM K+
Description: as §1
as §2, with “vasorelaxation. […]” for “vasorelaxation.”
as §4

[18] = 13b 0.5 µM, SKA-31 1 µM, alone or combined
[19] = SKA-31 10 µM, alone or with 13b 0.5 µM

O=C(OCc1cc(COC(=O)c2ccc(O)c(F)c2)cc(COC(=O)c2ccc(O)c(F)c2)c1)c1ccc(O)c(F)c1 [Compound 13b, [3,5-bis[(3-fluoro-4-hydroxy-benzoyl)oxymethyl]phenyl]methyl 3-fluoro-4-hydroxy-benzoate]
remaining activity at 1 µM ([1]; KCa3.1 whole-cell current, 3T3 fibroblasts, 1 µM free Ca2+ in pipette, compound 1 µM, mean ± SEM, n ≥3, read-out: % of control at 1 µM): 4 ± 1% | EC50 ([1]; KCa3.1 whole-cell, 1 µM SKA-31, read-out: EC50 to suppress the SKA-31-induced current): 161 ± 121 nM | Hill coefficient ([1]; KCa3.1 whole-cell, 3T3 fibroblasts): ~1 | KCa3.1 blocking effect (in words) ([1]; whole-cell, 3T3 fibroblasts, concentrations up to 50 µM as in Table 1): Complete inhibition | EC50 ([1]; whole-cell, 3T3 fibroblasts, read-out: EC50 of KCa3.1 inhibition): 19 nM | EC50 ([2]; HEK293, 0.5 µM free Ca2+, read-out: EC50 of hKCa3.1 inhibition): 14 nM | Hill coefficient ([2]; hKCa3.1): ~1 | remaining activity at 1 µM ([3]; COS-7, hKCa2.3, compound 1 µM, mean ± SEM, n ≥ 3, read-out: % of control at 1 µM): 4 ± 2% | Hill coefficient ([3]; hKCa2.3 whole-cell): ~1 | EC50 ([3]; whole-cell, COS7 cells, 1 µM free Ca2+, read-out: EC50 of hKCa2.3 inhibition): 0.36 nM | EC50 ([4]; inside-out single channel experiments, read-out: EC50 of hKCa2.3 inhibition): 0.241 ± 0.129 nM | Hill coefficient ([4]; inside-out, hKCa2.3): ~1 | KCa1.1 effect (in words) ([5]; U251 glioblastoma cells, 13b 1 µM, caffeic acid 10 µM): not blocked | % of control at 1 µM ([5]; hKCa1.1, compound 1 µM): 103 ± 3% | inhibition at 0.1 µM ([6]; 100 nM): 19% | remaining activity at 1 µM ([6]; hKv1.2, compound 1 µM, read-out: % of control at 1 µM): 11 ± 2% | EC50 ([6]; read-out: EC50 of hKv1.2 block): 550 ± 10 nM | hKv1.3 blocking effect (in words) ([7]; concentration of 10 µM as printed): not inhibited; also recorded: did not block | % of control at 1 µM ([7]; hKv1.3, compound 1 µM): 96.4 ± 0.2% | hERG effect (in words) [8]: not blocked; also recorded: did not block | activity at 1 µM [9]: 94 ± 3% | Kir current, % of control [10]: 98±2% | change of proliferation vs. vehicle ([11]; 0.5 µM, day 3): −23% | change of proliferation vs. vehicle ([11]; 2 µM, day 3): –20% | cytotoxicity (in words) ([11]; cultured 3T3 fibroblasts): not cytotoxic; also recorded: non-toxic | inhibition (reduction) of cell proliferation ([11]; day 3, 0.5 and 2 µM): 20% | block of current potentiated by 1 µM SKA-31 (in words) ([12]; 1 µM 13b): almost fully blocked | KCa current, % of control ([12]; whole-cell, compound 1 µM): 14±7% | Δg, 1st stimulation [13, 18]: 0.7 ± 0.1 g | Δg, 2nd stimulation [13, 18]: 0.7 ± 0.1 g | change of amplitude of 5-HT contraction vs. vehicle, 1st stimulation ([13]; 13b 0.5 µM): +74% | change of amplitude of 5-HT contraction vs. vehicle, 2nd stimulation ([13]; 13b 0.5 µM): +90% | Δg [14, 18]: 2.8 ± 0.2 g | change of U46619 contraction vs. vehicle ([14]; 13b 0.5 µM, alone or with SKA-31 1 µM): +29% | % relaxation, 5-HT-precontraction [15, 18]: 24±2% | % relaxation, U46619-precontraction [15, 18]: −1±1% | continued contraction of U46619-precontracted rings with bradykinin ([15]; 13b 0.5 µM): +1 % contraction | Δg, contraction to 60 mM K+ [16, 18]: 3.1 ± 0.3 g | % relaxation to 10 µM SNP [17, 18]: 84±4%

Nc1nc2c(ccc3ccccc32)s1 [SKA-31, naphtho[1,2-d]thiazol-2-ylamine]
Δg, 1st stimulation [13, 18]: 0.4 ± 0.1 g | Δg, 2nd stimulation [13, 18]: 0.5 ± 0.1 g | Δg, 1st stimulation [13, 19]: 0.4 ± 0.1 g | Δg, 2nd stimulation [13, 19]: 0.23 ± 0.02 g | change of amplitude of 5-HT contraction vs. vehicle, 2nd stimulation [13, 19]: −44% | Δg [14, 18]: 1.9 ± 0.5 g | Δg [14, 19]: 1.7 ± 0.2 g | % relaxation, 5-HT-precontraction [15, 18]: 65±6% | % relaxation, U46619-precontraction [15, 18]: 5% and 5±1% | % relaxation, 5-HT-precontraction [15, 19]: 47±8% | % relaxation, U46619-precontraction [15, 19]: 10% and 10±2% | change of bradykinin relaxation vs. vehicle, 5-HT-precontracted rings [15, 18]: +110% | change of bradykinin relaxation vs. vehicle, 5-HT-precontracted rings [15, 19]: +52% | Δg, contraction to 60 mM K+ [16, 18]: 3.2 ± 0.5 g | Δg, contraction to 60 mM K+ [16, 19]: 2.5 ± 0.4 g | % relaxation to 10 µM SNP [17, 18]: 82±8% | % relaxation to 10 µM SNP [17, 19]: 80±5%

Reference: paper PMC3597730, “Novel Phenolic Inhibitors of Small/Intermediate-Conductance Ca^2+-Activated K^+ Channels, KCa3.1 and KCa2.3” (PLoS ONE, 2013)
